{"source": "paper PMC10687582", "about": "“Herpetrione, a New Type of PPARα Ligand as a Therapeutic Strategy Against Nonalcoholic Steatohepatitis” (Research, 2023)", "target": "T1, PPARα (Homo sapiens, UniProt Q07869)", "T1 construct": "gene PPARA", "T1 sequence (Q07869 200-468 limits assumed)": "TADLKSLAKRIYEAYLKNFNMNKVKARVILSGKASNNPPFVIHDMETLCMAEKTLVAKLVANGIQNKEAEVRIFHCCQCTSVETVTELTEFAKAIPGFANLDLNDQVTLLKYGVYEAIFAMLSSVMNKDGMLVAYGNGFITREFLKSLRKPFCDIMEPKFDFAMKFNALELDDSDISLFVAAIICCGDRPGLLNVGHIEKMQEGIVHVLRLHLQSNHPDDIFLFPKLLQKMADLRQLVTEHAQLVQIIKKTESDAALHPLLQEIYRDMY", "assay": "ITC (KD […]; WT in the mutant comparison […]); SPR KD […]; CETSA and DARTS in HepG2 lysates", "assay_type": "binding", "data": [{"molecule": "COc1cc(C(=O)C(CO)c2cc(C3OCC4C(c5ccc(O)c(OC)c5)OCC34)cc(OC)c2O)ccc1O", "note": "(stereo not shown) [herpetrione]", "values": [{"measurement": "Kd", "value": 3.27, "unit": "µM"}]}]}
